Reference: the supplement of paper PMC11451515

Test system: NOMO1
Test: cell viability relative to DMSO control; higher = less cytotoxic
Settings: 48 h
How it was run: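 Library compounds in DMSO were pin-dosed into 1536-well plates (5 μl) holding NOMO1 or SEM (500 cells/well) or P12-Ichikawa (1000 cells/well) leukemia cells, across an 11-point threefold series of 47 μM to 0.79 nM. Each cell line had been adapted for at least four passages in each medium. CellTiter-Glo One luminescence was read after 48 h at 37°C. Viability is the per-plate percentage relative to DMSO wells, with cell-free wells as background.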

[1] = HPLM + 10% dialyzed FBS, 0.000781 µM
[2] = HPLM + 10% dialyzed FBS, 0.00234 µM
[3] = HPLM + 10% dialyzed FBS, 0.00702 µM
[4] = HPLM + 10% dialyzed FBS, 0.0211 µM
[5] = HPLM + 10% dialyzed FBS, 0.0632 µM
[6] = HPLM + 10% dialyzed FBS, 0.19 µM
[7] = HPLM + 10% dialyzed FBS, 0.569 µM
[8] = HPLM + 10% dialyzed FBS, 1.71 µM
[9] = HPLM + 10% dialyzed FBS, 5.12 µM
[10] = HPLM + 10% dialyzed FBS, 15.4 µM
[11] = HPLM + 10% dialyzed FBS, 46.1 µM
[12] = RPMI 5 mM glucose + 10% dialyzed FBS, 0.000781 µM
[13] = RPMI 5 mM glucose + 10% dialyzed FBS, 0.00234 µM
[14] = RPMI 5 mM glucose + 10% dialyzed FBS, 0.00702 µM
[15] = RPMI 5 mM glucose + 10% dialyzed FBS, 0.0211 µM
[16] = RPMI 5 mM glucose + 10% dialyzed FBS, 0.0632 µM
[17] = RPMI 5 mM glucose + 10% dialyzed FBS, 0.19 µM
[18] = RPMI 5 mM glucose + 10% dialyzed FBS, 0.569 µM
[19] = RPMI 5 mM glucose + 10% dialyzed FBS, 1.71 µM
[20] = RPMI 5 mM glucose + 10% dialyzed FBS, 5.12 µM
[21] = RPMI 5 mM glucose + 10% dialyzed FBS, 15.4 µM
[22] = RPMI 5 mM glucose + 10% dialyzed FBS, 46.1 µM
[23] = RPMI 5 mM glucose + 10% FBS, 0.000781 µM
[24] = RPMI 5 mM glucose + 10% FBS, 0.00234 µM
[25] = RPMI 5 mM glucose + 10% FBS, 0.00702 µM
[26] = RPMI 5 mM glucose + 10% FBS, 0.0211 µM
[27] = RPMI 5 mM glucose + 10% FBS, 0.0632 µM
[28] = RPMI 5 mM glucose + 10% FBS, 0.19 µM
[29] = RPMI 5 mM glucose + 10% FBS, 0.569 µM
[30] = RPMI 5 mM glucose + 10% FBS, 1.71 µM
[31] = RPMI 5 mM glucose + 10% FBS, 5.12 µM
[32] = RPMI 5 mM glucose + 10% FBS, 15.4 µM
[33] = RPMI 5 mM glucose + 10% FBS, 46.1 µM

SMILES	cell viability [1]	cell viability [2]	cell viability [3]	cell viability [4]	cell viability [5]	cell viability [6]	cell viability [7]	cell viability [8]	cell viability [9]	cell viability [10]	cell viability [11]	cell viability [12]	cell viability [13]	cell viability [14]	cell viability [15]	cell viability [16]	cell viability [17]	cell viability [18]	cell viability [19]	cell viability [20]	cell viability [21]	cell viability [22]	cell viability [23]	cell viability [24]	cell viability [25]	cell viability [26]	cell viability [27]	cell viability [28]	cell viability [29]	cell viability [30]	cell viability [31]	cell viability [32]	cell viability [33]
CC(O)(C#Cc1ccc2c(c1)N(c1nc(N)ncc1Cl)CC2)c1nccs1 (centres undefined)	98.7%	119%	132%	104%	130%	131%	130%	134%	152%	136%	87.5%	124%	113%	136%	131%	135%	135%	135%	127%	138%	147%	110%											
O=C(O)/C=C/c1ccc(O)c(O)c1	104%	125%	104%	107%	127%	124%	118%	118%	104%	94.7%	67%	105%	118%	106%	102%	106%	115%	107%	112%	101%	105%	47.9%	124%	100%	109%	107%	97.9%	98.9%	92.5%	111%	101%	92.2%	25.2%
COc1ccc(C2Sc3ccccc3N(CCN(C)C)C(=O)C2OC(C)=O)cc1 (centres undefined)	118%	114%	124%	114%	112%	114%	113%	120%	119%	110%	89.2%	115%	104%	112%	107%	113%	111%	115%	109%	100%	98.7%	85.2%	97.3%	108%	105%	96.9%	100%	108%	99%	102%	100%	95.4%	94.8%
CC[C@H](NC(=O)[C@H](C)NC)C(=O)N1C[C@@H](O)C[C@H]1Cc1c(-c2[nH]c3cc(F)ccc3c2C[C@@H]2C[C@H](O)CN2C(=O)[C@H](CC)NC(=O)[C@H](C)NC)[nH]c2cc(F)ccc12	113%	112%	123%	114%	126%	110%	89.9%	67.3%	22.6%	20.3%	21.8%	113%	122%	145%	150%	150%	128%	115%	106%	17.3%	16.2%	12.5%											
O=C(O)CCn1c2c(c3ccccc31)C[C@H](N[S+](=O)([O-])c1ccc(F)cc1)CC2	115%	112%	120%	124%	113%	109%	104%	105%	116%	88.3%	72.2%	99.2%	107%	120%	102%	95.8%	102%	109%	98.1%	103%	91.8%	85.9%	102%	105%	108%	98.2%	114%	99%	99.2%	98.7%	94.2%	102%	90.5%
CN(C)CC[C@H](c1ccc(Cl)cc1)c1ccccn1	70.4%	74%	78.8%	77.9%	75.7%	77.9%	88.3%	79.7%	81%	78.8%	87.1%	74%	88.2%	83.1%	85.9%	81.5%	86.5%	95.7%	89.5%	89.5%	91%	82.8%	75%	76.5%	77.1%	80.3%	81.4%	81.2%	80.7%	79.6%	83.2%	79.9%	83.7%
COc1cc([C@H]2Oc3cc([C@H]4Oc5cc(O)cc(O)c5C(=O)[C@@H]4O)ccc3O[C@@H]2CO)ccc1O	103%	122%	119%	126%	120%	123%	125%	95.9%	106%	119%	82%	104%	121%	115%	119%	118%	100%	102%	109%	106%	110%	101%	105%	124%	118%	110%	114%	116%	111%	100%	111%	115%	103%
